Test results from patent US8506942B2, “Hair care composition” (Conopco, Inc., priority 2007, dated 2013).

Biological target: T1, trypsin (Bos taurus, UniProt P00760)
T1 construct: gene PRSS1
T1 sequence (P00760 24-246): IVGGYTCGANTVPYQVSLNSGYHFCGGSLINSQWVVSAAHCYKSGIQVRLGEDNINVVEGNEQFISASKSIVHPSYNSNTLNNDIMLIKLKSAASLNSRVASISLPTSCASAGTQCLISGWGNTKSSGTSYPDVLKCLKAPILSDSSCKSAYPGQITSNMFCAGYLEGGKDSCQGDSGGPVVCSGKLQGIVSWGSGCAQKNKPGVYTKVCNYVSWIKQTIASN
Test: EnzChek Protease Assay measuring trypsin activity (trypsin inhibition)
Format: biochemical
Details: for Trypsin activity (RFU): control (trypsin only) 1446 RFU; for Normalised activity: control (trypsin only) = 1.0
Description: Hair growth follows a cycle of activity: anagen (growth phase), catagen (transitional/regression phase), telogen (dormant) followed by renewal of anagen. The telogen phase lasts approximately 3 months. […] The major biochemical activity at this stage is one of proteolysis whereby the proteins anchoring the hair fibre to the structure of the follicle are degraded (Paus & Krejic-Papa J Dermatol Sci 1994 Vol. 7, pp. 202-209; Krejic-Papa et al J Invest Derm Vol. 106, p 557). These enzymes are of the serine protease family of proteases.
Trypsin is a serine protease.
The following experiment uses trypsin as a model for the serine proteases involved in the process of hair fall (exogen). Successful inhibition the activity of the serine proteases such as trypsin is thought to delay the onset of exogen and decrease the amount of hair fall.
The EnzChek Protease Assay (E6639, Molecular Probes) was used to measure trypsin activity.

SMILES: CC(C)(C)C(=O)C(Oc1ccc(Cl)cc1)n1ccnc1 (centres unmarked) [Climbazole]
- Trypsin activity (RFU) (Climbazole 0.0225%): 1656 RFU
- Normalised activity (Climbazole 0.0225%): 1.15
- Trypsin activity (RFU) (Climbazole 0.045%): 1553 RFU
- Normalised activity (Climbazole 0.045%): 1.07
- effect on trypsin activity (summary of the tables of Examples 1-6): no effect (or perhaps a positive effect)
